55 molecules from ChEMBL document CHEMBL1126356, “Structure-activity relationships of the pyridazinone series of 5-lipoxygenase inhibitors” (Bioorg Med Chem Lett, 1992) can be followed below.

SMILES strings stand for the structures. Activity calls are given as the source filed them. The rule behind the calls is not given here.

The first assay relates to Rattus norvegicus. The assay can be described thus: Compound was tested for in vivo potency in the rat anaphylaxis assay. The class given is functional.
Regarding `N#Cc1cccc(N2CCCC(=O)N2)c1`, the ED50 is 23 mg/kg.

The next assay addresses T1, Polyunsaturated fatty acid 5-lipoxygenase (Homo sapiens) (UniProt P09917).
T1 sequence (whole entry): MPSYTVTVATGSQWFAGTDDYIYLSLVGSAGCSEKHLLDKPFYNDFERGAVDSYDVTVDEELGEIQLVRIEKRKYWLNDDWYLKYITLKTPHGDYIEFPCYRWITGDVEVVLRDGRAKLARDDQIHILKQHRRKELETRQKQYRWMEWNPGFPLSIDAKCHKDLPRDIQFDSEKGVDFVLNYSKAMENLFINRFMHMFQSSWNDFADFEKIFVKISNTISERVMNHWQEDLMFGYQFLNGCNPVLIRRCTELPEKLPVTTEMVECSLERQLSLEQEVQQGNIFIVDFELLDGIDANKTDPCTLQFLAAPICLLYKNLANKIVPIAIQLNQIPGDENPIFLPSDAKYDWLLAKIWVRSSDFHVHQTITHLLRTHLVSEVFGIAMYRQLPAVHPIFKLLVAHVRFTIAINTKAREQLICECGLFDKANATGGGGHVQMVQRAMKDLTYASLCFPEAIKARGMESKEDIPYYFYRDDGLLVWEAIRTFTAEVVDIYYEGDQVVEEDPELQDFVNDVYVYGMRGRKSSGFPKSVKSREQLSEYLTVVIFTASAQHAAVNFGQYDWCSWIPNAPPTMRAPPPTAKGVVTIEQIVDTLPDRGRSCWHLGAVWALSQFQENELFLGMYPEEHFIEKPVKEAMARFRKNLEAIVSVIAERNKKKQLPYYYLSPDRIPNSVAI
Nature of the assay: Inhibitory Activity against 5-Lipoxygenase at 30 uM was determined; Weakly active.
For the molecule `O=C1CCC(=O)N(c2ccccc2)N1`, the inhibition stood at 24%.

Another assay deals with T2, Polyunsaturated fatty acid 5-lipoxygenase (Homo sapiens, UniProt P09917).
T2 sequence (P09917 whole entry): T1 sequence (whole entry)
Nature of the assay: Inhibitory Activity against 5-Lipoxygenase was determined; IA=Inactive at concentrations less than 32 uM.
As to `O=C1CCCCN(c2ccccc2)N1`, the IC50 entry is “Not Active”.

For a further assay, the target named is T1, Polyunsaturated fatty acid 5-lipoxygenase (Homo sapiens). Nature of the assay: In vitro inhibition of 5-Lipoxygenase; Inactive.
As for `O=C1CCCN(Cc2ccccc2)N1`, the result was inactive.
On to `CCCCCN1CCCC(=O)N1`, for which the result was inactive.
For the molecule `O=C1CCCN(c2ccccc2)N1c1ccccc1`, the result was inactive.
As to `CC1=NN(c2ccccc2)C(=O)CC1`, the result was inactive.
For `O=C1CCC(c2ccccc2)NN1` (stereo unspecified), the outcome was inactive.
On to `O=C1CCCNN1`, for which the result was inactive.
Regarding `O=C1CCCN(C(=O)c2ccccc2)N1`, the result was inactive.
Same read-out and setting: the entry for `O=C1CCCN(c2ccccc2)C1` is “inactive”; for `CCC(=O)N1C(=O)CCCN1c1ccccc1` it is “inactive”; for `O=C1CCCN(c2ccccc2)N1C(=O)c1ccccc1` it is “inactive”.
For the molecule `c1ccc(N2CCCCN2)cc1`, the outcome was inactive.
On to `C1=NN(c2ccccc2)CCC1`, for which the outcome was inactive.
In the case of `O=C1CCCC(c2ccccc2)=N1`, the result was inactive.
Regarding `CC1CCC(=O)N(c2ccccc2)N1` (stereo unspecified), the result was inactive.
As to `O=C1CCCN(C2CCCCC2)N1`, the result was inactive.
Turning to `CN1C(=O)CCCN1c1ccccc1`, the result was inactive.
`O=C1CCCC(c2ccccc2)N1` (stereo unspecified): the outcome was inactive.
Take `O=C1CCC(c2ccccc2)=NN1`: the outcome was inactive.

The target is the same in a further assay. Nature of the assay: Inhibitory Activity against 5-Lipoxygenase at concentration 32 uM was determined.
In the case of `O=C1CCCCCN(c2ccccc2)N1`, the inhibition was found to be 8%.

In a further assay the target is T2, Polyunsaturated fatty acid 5-lipoxygenase. Nature of the assay: Inhibitory Activity against 5-Lipoxygenase was determined; NA=No significant inhibitory activity up to 300 uM.
On to `O=C1CCCN(c2cccc(C(=O)O)c2)N1`, for which the IC50 entry is “Not Active”.

The target is the same in another assay. Nature of the assay: Inhibitory activity against 5-lipoxygenase.
In turn, `O=C1CCN(c2ccccc2Cl)N1` displayed an IC50 of 3.7 µM.
`CCc1ccc(N2CCCC(=O)N2)cc1` yielded an IC50 of 125 µM.
Molecule `COc1ccc(N2CCCC(=O)N2)cc1` gave an IC50 of 156 µM.
Same read-out and setting: the figure for `Cc1cccc(N2CCCC(=O)N2)c1` is 3.4 µM; for `CCc1ccccc1N1CCCC(=O)N1` it is 39 µM; for `O=C1CCCN(c2ccccc2Cl)N1` it is 99 µM.
For `CCOC(=O)c1cccc(N2CCCC(=O)N2)c1`, the IC50 came out at 5.6 µM.
`CCCCCCCCCCCCN1CCCC(=O)N1`: it took 6 µM to reach half-maximal inhibition (IC50).
On the same count and under the same terms, in the case of `CCc1cccc(N2CCCC(=O)N2)c1` it was 3 µM; in that of `CCCC(=O)NNc1ccccc1`, 52 µM; in that of `O=C1CCCN(c2cccc(Br)c2)N1`, 1.8 µM.
`O=C1CCCN(c2ccc(Cl)cc2)N1`: it took 79 µM to reach half-maximal inhibition (IC50).
For the molecule `O=C1CCCN(c2cccc(F)c2)N1`, half-maximal inhibition (IC50) required 5.5 µM.
On to `Cc1ccccc1N1CCC(=O)N1`, for which inhibition was half-maximal at 8.2 µM (IC50).
On the same count and under the same terms, the figure for `O=C1CCCN(c2cccc(C(F)(F)F)c2)N1` is 5.2 µM; for `O=C1CCN(c2ccc(Cl)cc2)N1` it is 1.1 µM.
Take `Cc1ccccc1N1CCCC(=O)N1`: the IC50 worked out at 57 µM.
In turn, `O=C1CCCN(c2cccc(CO)c2)N1` gave a half-inhibitory concentration (IC50) of 53 µM.
For the molecule `COc1cccc(N2CCCC(=O)N2)c1`, the IC50 was 6.7 µM.
Still for that read-out and setting: in the case of `CC(C)(C)C(=O)c1cccc(N2CCCC(=O)N2)c1` it was 15 µM; in that of `CCCCCCCCN1CCCC(=O)N1`, 23 µM; in that of `CC(=O)NNc1ccccc1`, 65 µM.
`Cc1ccc(N2CCCC(=O)N2)cc1` displayed an IC50 of 277 µM.
Turning to `COc1ccccc1N1CCCC(=O)N1`, the IC50 is 204 µM.
`O=C1CCCN(c2ccccc2)N1` gave an IC50 of 3.8 µM.
For `CC(=O)c1cccc(N2CCCC(=O)N2)c1`, half-maximal inhibition (IC50) required 19 µM.
In turn, `Cc1ccc(N2CCC(=O)N2)cc1` gave an IC50 of 3.5 µM.
In turn, `O=C1CCN(c2cccc(Cl)c2)N1` returned an IC50 of 0.73 µM.
Take `Cc1cccc(N2CCC(=O)N2)c1`: inhibition was half-maximal at 1.3 µM (IC50).
For `N#Cc1cccc(N2CCCC(=O)N2)c1`, it took 9.3 µM to reach half-maximal inhibition (IC50).
As to `O=C1CCCN(c2cccc(Cl)c2)N1`, the IC50 was 2.5 µM.

A further assay has the same target. Nature of the assay: Inhibitory Activity against 5-Lipoxygenase was determined; IA=Inactive.
Regarding `CCOC(=O)CCCCN(N)c1ccccc1`, the half-inhibitory concentration (IC50) entry is recorded as “Not Active”.
Take `CCOC(=O)CCCCCN(N)c1ccccc1`: the IC50 result was “Not Active”.
